{"source": "ChEMBL document CHEMBL4800722", "about": "“Data for DCP probe BI 605906” (2021)", "key": {"[1]": {"target": "Phosphatidylinositol 4-kinase beta (Homo sapiens) (UniProt Q9UBF8)", "settings": "Compound concentration 1.0 uM"}, "[2]": {"target": "Serine/threonine-protein kinase PAK 1 (Homo sapiens) (UniProt Q13153)", "settings": "Compound concentration 1.0 uM"}, "[3]": {"target": "T1, Interleukin-1 receptor-associated kinase 3 (Homo sapiens) (UniProt Q9Y616)", "T1 sequence (whole entry)": "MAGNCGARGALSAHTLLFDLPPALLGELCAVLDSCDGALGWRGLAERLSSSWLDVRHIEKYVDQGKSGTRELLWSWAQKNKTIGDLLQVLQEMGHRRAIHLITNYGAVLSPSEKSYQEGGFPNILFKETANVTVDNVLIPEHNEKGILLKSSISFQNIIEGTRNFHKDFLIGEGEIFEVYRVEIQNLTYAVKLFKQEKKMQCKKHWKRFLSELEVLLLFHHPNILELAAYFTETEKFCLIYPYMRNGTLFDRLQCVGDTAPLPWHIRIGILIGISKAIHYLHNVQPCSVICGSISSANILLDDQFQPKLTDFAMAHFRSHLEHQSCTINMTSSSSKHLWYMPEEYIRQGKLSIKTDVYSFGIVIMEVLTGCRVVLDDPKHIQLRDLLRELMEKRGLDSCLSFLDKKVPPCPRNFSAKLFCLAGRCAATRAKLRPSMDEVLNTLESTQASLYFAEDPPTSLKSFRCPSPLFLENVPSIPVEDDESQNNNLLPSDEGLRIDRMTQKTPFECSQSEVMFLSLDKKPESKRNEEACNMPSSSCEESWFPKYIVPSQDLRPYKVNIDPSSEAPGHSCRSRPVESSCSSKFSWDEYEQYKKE"}, "[4]": {"target": "Serine/threonine-protein kinase WNK1 (Homo sapiens) (UniProt Q9H4A3)", "settings": "Compound concentration 1.0 uM"}, "[5]": {"target": "Serine/threonine-protein kinase 4 (Homo sapiens) (UniProt Q13043)", "sequence (Q13043 whole entry)": "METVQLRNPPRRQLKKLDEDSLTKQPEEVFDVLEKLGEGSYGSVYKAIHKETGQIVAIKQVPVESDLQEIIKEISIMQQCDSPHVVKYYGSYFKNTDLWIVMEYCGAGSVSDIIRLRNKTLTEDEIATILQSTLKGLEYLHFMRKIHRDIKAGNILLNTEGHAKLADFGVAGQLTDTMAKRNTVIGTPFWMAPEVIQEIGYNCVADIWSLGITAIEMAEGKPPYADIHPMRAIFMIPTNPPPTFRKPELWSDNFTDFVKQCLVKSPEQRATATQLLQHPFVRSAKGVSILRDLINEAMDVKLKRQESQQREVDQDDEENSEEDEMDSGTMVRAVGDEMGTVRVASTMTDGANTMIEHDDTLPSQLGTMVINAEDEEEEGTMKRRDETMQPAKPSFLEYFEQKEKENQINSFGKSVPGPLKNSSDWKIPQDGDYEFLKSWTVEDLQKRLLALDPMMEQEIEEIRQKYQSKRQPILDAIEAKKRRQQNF", "test": "STK4 Invitrogen Lab (UK) kinase screen (BI)", "settings": "Compound concentration 1.0 uM"}, "[6]": {"target": "Muscarinic acetylcholine receptor M3 (Homo sapiens) (UniProt P20309)", "settings": "Compound concentration 10.0 uM"}, "[7]": {"target": "Tyrosine-protein kinase TXK (Homo sapiens) (UniProt P42681)", "settings": "Compound concentration 1.0 uM"}, "[8]": {"target": "NT-3 growth factor receptor (Homo sapiens) (UniProt Q16288)", "test": "NTRK3 Invitrogen Lab (UK) kinase screen (BI)", "settings": "Compound concentration 1.0 uM"}, "[9]": {"target": "Mitogen-activated protein kinase kinase kinase 9 (Homo sapiens) (UniProt P80192)", "sequence (P80192 whole entry, looked up)": "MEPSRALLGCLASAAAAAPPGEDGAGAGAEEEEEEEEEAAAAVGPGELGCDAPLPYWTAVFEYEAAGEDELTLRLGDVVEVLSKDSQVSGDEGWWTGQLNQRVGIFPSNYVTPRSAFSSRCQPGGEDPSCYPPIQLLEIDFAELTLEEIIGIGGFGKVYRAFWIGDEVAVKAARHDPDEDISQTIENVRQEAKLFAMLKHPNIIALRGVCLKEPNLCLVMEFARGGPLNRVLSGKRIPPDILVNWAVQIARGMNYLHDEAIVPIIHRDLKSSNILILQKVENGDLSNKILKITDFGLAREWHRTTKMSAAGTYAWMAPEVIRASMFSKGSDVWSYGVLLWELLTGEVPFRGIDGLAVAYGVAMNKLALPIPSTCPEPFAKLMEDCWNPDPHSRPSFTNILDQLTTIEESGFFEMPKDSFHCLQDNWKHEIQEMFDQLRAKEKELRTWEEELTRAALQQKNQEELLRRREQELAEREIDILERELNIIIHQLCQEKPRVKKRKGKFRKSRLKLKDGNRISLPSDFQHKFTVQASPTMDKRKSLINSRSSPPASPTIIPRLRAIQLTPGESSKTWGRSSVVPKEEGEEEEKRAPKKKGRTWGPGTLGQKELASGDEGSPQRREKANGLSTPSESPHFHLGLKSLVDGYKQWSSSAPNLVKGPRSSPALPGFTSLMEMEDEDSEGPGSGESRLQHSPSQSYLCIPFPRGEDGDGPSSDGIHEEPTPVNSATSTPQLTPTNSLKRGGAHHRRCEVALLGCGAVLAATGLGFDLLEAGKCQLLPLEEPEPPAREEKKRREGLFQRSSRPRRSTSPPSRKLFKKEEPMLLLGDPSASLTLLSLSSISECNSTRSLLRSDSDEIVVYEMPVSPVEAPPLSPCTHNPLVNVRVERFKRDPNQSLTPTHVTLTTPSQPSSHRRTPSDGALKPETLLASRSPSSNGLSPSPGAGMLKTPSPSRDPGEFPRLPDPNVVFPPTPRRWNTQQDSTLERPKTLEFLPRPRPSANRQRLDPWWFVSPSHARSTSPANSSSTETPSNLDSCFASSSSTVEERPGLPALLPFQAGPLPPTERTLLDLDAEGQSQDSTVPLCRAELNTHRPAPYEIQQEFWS", "settings": "Compound concentration 1.0 uM"}, "[10]": {"target": "Natriuretic peptides A (Cavia porcellus) (UniProt P27596)", "sequence (P27596 whole entry)": "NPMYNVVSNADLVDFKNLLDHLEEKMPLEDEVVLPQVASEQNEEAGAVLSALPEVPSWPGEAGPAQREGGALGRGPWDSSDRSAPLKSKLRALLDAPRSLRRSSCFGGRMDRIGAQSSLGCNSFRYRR", "settings": "Compound concentration 100.0 uM"}, "[11]": {"target": "Phosphatidylinositol 5-phosphate 4-kinase type-2 alpha (Homo sapiens) (UniProt P48426)", "sequence (P48426 whole entry)": "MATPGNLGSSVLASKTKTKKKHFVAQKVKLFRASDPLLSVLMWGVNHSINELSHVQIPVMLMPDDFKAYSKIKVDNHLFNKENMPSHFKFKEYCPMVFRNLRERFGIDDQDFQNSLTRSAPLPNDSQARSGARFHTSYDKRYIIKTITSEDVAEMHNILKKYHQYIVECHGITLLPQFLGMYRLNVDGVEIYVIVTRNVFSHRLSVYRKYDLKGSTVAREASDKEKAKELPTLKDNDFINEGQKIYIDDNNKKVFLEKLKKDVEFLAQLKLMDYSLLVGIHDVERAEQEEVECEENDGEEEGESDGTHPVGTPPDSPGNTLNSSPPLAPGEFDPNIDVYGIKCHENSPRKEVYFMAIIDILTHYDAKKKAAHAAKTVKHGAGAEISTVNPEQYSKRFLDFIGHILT", "test": "PIP4K2A Invitrogen Lab (UK) kinase screen (BI)", "settings": "Compound concentration 1.0 uM"}, "[12]": {"target": "Serine/threonine-protein kinase MRCK gamma (Homo sapiens) (UniProt Q6DT37)", "test": "CDC42 BPG (MRCKG) Invitrogen Lab (UK) kinase screen (BI)", "settings": "Compound concentration 1.0 uM"}, "[13]": {"target": "MAP kinase-interacting serine/threonine-protein kinase 1 (Homo sapiens) (UniProt Q9BUB5)", "test": "MKNK1 Invitrogen Lab (UK) kinase screen (BI)", "settings": "Compound concentration 1.0 uM"}, "[14]": {"target": "Interferon-induced, double-stranded RNA-activated protein kinase (Homo sapiens) (UniProt P19525)", "settings": "Compound concentration 1.0 uM"}, "[15]": {"target": "Phosphatidylinositol 4-kinase alpha (Homo sapiens) (UniProt P42356)", "test": "PI4KA Invitrogen Lab (UK) kinase screen (BI)", "settings": "Compound concentration 1.0 uM"}, "[16]": {"target": "Cyclin-dependent kinase 7 (Homo sapiens) (UniProt P50613)", "settings": "Compound concentration 1.0 uM"}, "[17]": {"target": "Ephrin type-A receptor 5 (Homo sapiens) (UniProt P54756)", "settings": "Compound concentration 1.0 uM"}, "[18]": {"target": "Serine/threonine-protein kinase NLK (Homo sapiens) (UniProt Q9UBE8)", "settings": "Compound concentration 1.0 uM"}, "[19]": {"target": "Thromboxane-A synthase (Homo sapiens) (UniProt P24557)", "test": "THRO SYN(HU) Eurofins SafetyScreen44 (BI)", "settings": "Compound concentration 10.0 uM"}, "[20]": {"target": "Casein kinase I isoform gamma-1 (Homo sapiens) (UniProt Q9HCP0)", "test": "CSNK1G1 Invitrogen Lab (UK) kinase screen (BI)", "settings": "Compound concentration 1.0 uM"}, "[21]": {"target": "Mitogen-activated protein kinase 8 (Homo sapiens) (UniProt P45983)", "test": "JNK1A1SAPK1C DUNDEE kinase screen (BI)", "settings": "Compound concentration 10.0 uM"}, "[22]": {"target": "Histamine H1 receptor (Homo sapiens) (UniProt P35367)", "sequence (P35367 whole entry)": "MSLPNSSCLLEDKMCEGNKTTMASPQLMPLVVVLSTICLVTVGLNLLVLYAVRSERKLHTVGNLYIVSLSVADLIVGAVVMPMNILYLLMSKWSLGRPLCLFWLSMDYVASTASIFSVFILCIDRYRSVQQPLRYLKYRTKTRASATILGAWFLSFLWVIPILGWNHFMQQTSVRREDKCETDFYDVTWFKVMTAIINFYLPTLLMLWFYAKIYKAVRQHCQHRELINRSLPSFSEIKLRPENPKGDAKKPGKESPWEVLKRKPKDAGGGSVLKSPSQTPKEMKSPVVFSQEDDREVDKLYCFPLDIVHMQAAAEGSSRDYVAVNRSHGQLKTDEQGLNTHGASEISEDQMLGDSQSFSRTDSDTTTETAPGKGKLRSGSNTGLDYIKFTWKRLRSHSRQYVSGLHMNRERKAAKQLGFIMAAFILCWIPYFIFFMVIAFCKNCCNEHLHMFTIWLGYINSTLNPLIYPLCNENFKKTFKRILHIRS", "settings": "Compound concentration 10.0 uM"}, "[23]": {"target": "Collagenase 3 (Homo sapiens) (UniProt P45452)", "settings": "Compound concentration 10.0 uM"}, "[24]": {"target": "Discoidin domain-containing receptor 2 (Homo sapiens) (UniProt Q16832)", "settings": "Compound concentration 1.0 uM"}, "[25]": {"target": "Calcium/calmodulin-dependent protein kinase type 1G (Homo sapiens) (UniProt Q96NX5)", "settings": "Compound concentration 1.0 uM"}, "[26]": {"target": "Eukaryotic elongation factor 2 kinase (Homo sapiens) (UniProt O00418)", "sequence (O00418 whole entry)": "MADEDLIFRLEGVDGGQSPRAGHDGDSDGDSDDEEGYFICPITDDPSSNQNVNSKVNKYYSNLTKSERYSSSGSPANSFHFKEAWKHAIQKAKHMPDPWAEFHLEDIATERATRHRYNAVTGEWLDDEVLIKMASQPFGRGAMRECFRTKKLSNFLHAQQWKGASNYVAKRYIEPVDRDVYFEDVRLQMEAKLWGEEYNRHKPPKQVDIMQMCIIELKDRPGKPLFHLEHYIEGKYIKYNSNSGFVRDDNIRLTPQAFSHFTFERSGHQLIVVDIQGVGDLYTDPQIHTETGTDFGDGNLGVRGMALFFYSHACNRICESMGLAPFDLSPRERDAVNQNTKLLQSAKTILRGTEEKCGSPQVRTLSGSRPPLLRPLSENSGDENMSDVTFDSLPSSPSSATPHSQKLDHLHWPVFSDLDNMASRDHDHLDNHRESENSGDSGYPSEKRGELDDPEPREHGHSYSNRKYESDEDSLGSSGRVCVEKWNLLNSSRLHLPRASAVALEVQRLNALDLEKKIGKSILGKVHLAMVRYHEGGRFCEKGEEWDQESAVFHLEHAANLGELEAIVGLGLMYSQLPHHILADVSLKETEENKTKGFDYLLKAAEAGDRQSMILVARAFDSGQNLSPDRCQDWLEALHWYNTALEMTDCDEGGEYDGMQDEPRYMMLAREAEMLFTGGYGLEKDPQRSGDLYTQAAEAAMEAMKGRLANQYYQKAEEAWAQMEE", "test": "EF2K DUNDEE kinase screen (BI)", "settings": "filed as activator, Compound concentration 10.0 uM"}, "[27]": {"target": "3-phosphoinositide-dependent protein kinase 1 (Homo sapiens) (UniProt O15530)", "sequence (O15530 whole entry, looked up)": "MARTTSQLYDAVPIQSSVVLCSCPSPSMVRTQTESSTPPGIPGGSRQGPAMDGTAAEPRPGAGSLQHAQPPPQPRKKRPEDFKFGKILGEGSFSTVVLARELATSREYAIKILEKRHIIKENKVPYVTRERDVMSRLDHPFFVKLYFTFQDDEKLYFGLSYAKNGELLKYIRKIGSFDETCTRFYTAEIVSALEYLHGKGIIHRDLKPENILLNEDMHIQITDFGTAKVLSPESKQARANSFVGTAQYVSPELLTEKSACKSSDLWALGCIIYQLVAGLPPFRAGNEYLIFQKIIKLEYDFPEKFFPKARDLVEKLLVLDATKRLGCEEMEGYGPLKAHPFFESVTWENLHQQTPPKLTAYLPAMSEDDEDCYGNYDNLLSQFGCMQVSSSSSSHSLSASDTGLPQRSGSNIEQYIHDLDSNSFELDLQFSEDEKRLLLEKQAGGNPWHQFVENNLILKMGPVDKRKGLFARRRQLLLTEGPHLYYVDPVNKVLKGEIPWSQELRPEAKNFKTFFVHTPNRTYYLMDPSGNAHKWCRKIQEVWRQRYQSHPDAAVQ"}, "[28]": {"target": "Sodium-dependent noradrenaline transporter (Homo sapiens) (UniProt P23975)", "settings": "Compound concentration 10.0 uM"}, "[29]": {"target": "Serine/threonine-protein kinase PAK 4 (Homo sapiens) (UniProt O96013)", "sequence (O96013 whole entry, looked up)": "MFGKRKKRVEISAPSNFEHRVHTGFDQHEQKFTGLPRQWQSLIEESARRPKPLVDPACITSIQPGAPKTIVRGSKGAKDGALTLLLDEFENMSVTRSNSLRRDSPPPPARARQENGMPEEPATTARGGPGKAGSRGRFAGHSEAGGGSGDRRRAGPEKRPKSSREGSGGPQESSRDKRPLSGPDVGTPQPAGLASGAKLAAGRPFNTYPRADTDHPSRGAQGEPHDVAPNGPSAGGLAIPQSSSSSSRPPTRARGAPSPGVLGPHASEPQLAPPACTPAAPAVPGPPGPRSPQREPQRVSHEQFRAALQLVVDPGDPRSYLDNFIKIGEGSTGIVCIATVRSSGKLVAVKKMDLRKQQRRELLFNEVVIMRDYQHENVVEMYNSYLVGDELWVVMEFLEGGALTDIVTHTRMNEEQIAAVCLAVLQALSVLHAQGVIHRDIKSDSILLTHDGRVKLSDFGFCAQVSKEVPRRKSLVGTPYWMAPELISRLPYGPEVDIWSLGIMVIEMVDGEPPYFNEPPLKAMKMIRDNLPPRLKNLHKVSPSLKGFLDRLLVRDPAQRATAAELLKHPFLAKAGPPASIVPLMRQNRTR"}, "[30]": {"target": "Ephrin type-B receptor 2 (Homo sapiens) (UniProt P29323)", "settings": "Compound concentration 1.0 uM"}, "[31]": {"target": "Protein kinase C alpha type (Homo sapiens) (UniProt P17252)", "test": "PKCA DUNDEE kinase screen (BI)", "settings": "Compound concentration 10.0 uM"}, "[32]": {"target": "Phosphorylase b kinase gamma catalytic chain, testis/liver isoform (Homo sapiens) (UniProt P15735)", "sequence (P15735 whole entry, looked up, canonical isoform)": "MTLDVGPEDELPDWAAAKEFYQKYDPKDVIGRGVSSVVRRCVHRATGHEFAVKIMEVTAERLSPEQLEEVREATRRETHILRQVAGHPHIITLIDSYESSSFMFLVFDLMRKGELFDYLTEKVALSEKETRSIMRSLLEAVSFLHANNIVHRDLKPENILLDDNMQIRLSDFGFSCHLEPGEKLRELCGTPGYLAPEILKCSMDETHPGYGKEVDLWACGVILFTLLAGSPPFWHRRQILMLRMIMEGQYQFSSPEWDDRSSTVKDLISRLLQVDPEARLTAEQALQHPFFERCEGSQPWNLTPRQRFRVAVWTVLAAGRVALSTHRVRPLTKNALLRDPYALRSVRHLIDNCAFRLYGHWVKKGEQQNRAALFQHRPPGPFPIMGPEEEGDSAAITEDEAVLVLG"}, "[33]": {"target": "Death-associated protein kinase 3 (Homo sapiens) (UniProt O43293)", "settings": "Compound concentration 1.0 uM"}, "[34]": {"target": "Homeodomain-interacting protein kinase 4 (Homo sapiens) (UniProt Q8NE63)", "test": "HIPK4 Invitrogen Lab (UK) kinase screen (BI)", "settings": "Compound concentration 1.0 uM"}, "[35]": {"target": "Serine/threonine-protein kinase 24 (Homo sapiens) (UniProt Q9Y6E0)", "settings": "Compound concentration 1.0 uM"}}}
{"molecule": "CCC(F)(F)c1cc(N2CCC(S(C)(=O)=O)CC2)nc2sc(C(N)=O)c(N)c12", "note": "[BI-605906]", "values": [{"measurement": "residual activity", "setting": "[1]", "value": 92, "unit": "%"}, {"measurement": "residual activity", "setting": "[2]", "value": 98, "unit": "%"}, {"measurement": "residual activity", "setting": "[3]; Compound concentration 0.001 uM", "value": 93, "unit": "%"}, {"measurement": "residual activity", "setting": "[3]; Compound concentration 1.0 uM", "value": 24, "unit": "%"}, {"measurement": "residual activity", "setting": "[3]; Compound concentration 20.0 uM", "value": 14, "unit": "%"}, {"measurement": "residual activity", "setting": "[4]", "value": 99, "unit": "%"}, {"measurement": "residual activity", "setting": "[5]", "value": 102, "unit": "%"}, {"measurement": "inhibition", "setting": "[6]", "value": 21.1, "unit": "%"}, {"measurement": "residual activity", "setting": "[7]", "value": 93, "unit": "%"}, {"measurement": "residual activity", "setting": "[8]", "value": 84, "unit": "%"}, {"measurement": "residual activity", "setting": "[9]", "value": 108, "unit": "%"}, {"measurement": "residual activity", "setting": "[10]", "value": 100, "unit": "%"}, {"measurement": "residual activity", "setting": "[11]", "value": 115, "unit": "%"}, {"measurement": "residual activity", "setting": "[12]", "value": 111, "unit": "%"}, {"measurement": "residual activity", "setting": "[13]", "value": 107, "unit": "%"}, {"measurement": "residual activity", "setting": "[14]", "value": 96, "unit": "%"}, {"measurement": "residual activity", "setting": "[15]", "value": 84, "unit": "%"}, {"measurement": "residual activity", "setting": "[16]", "value": 99, "unit": "%"}, {"measurement": "residual activity", "setting": "[17]", "value": 94, "unit": "%"}, {"measurement": "residual activity", "setting": "[18]", "value": 93, "unit": "%"}, {"measurement": "residual activity", "setting": "[19]", "value": 86, "unit": "%"}, {"measurement": "residual activity", "setting": "[20]", "value": 102, "unit": "%"}, {"measurement": "residual activity", "setting": "[21]", "value": 93.8, "unit": "%"}, {"measurement": "inhibition", "setting": "[22]", "value": 9.22, "unit": "%"}, {"measurement": "residual activity", "setting": "[23]", "value": 90, "unit": "%"}, {"measurement": "residual activity", "setting": "[24]", "value": 99, "unit": "%"}, {"measurement": "residual activity", "setting": "[25]", "value": 90, "unit": "%"}, {"measurement": "residual activity", "setting": "[26]", "value": 66.2, "unit": "%"}, {"measurement": "residual activity", "setting": "[27]; Compound concentration 1.0 uM", "value": 89, "unit": "%"}, {"measurement": "residual activity", "setting": "[27]; Compound concentration 10.0 uM", "value": 101, "unit": "%"}, {"measurement": "inhibition", "setting": "[28]", "value": 8.84, "unit": "%"}, {"measurement": "residual activity", "setting": "[29]; Compound concentration 1.0 uM", "value": 95, "unit": "%"}, {"measurement": "residual activity", "setting": "[29]; Compound concentration 10.0 uM", "value": 80, "unit": "%"}, {"measurement": "residual activity", "setting": "[30]", "value": 89, "unit": "%"}, {"measurement": "residual activity", "setting": "[31]", "value": 66.9, "unit": "%"}, {"measurement": "residual activity", "setting": "[32]; Compound concentration 1.0 uM", "value": 99, "unit": "%"}, {"measurement": "residual activity", "setting": "[32]; Compound concentration 10.0 uM", "value": 97, "unit": "%"}, {"measurement": "residual activity", "setting": "[33]", "value": 101, "unit": "%"}, {"measurement": "residual activity", "setting": "[34]", "value": 77, "unit": "%"}, {"measurement": "residual activity", "setting": "[35]", "value": 101, "unit": "%"}]}
